In patent publication EP3325465B1, “PESTICIDALLY ACTIVE PYRAZOLE DERIVATIVES” (Syngenta Participations AG, priority 2015, dated 2017):
Read-outs that look alike come from different tables or passages of the source.

Assays:
Assay type in all cases: in vivo
[1] = test system: Thrips tabaci (Onion thrips); experiment: Biological comparison b): insecticidal activity against Thrips tabaci, sunflower leaf discs; conditions: foliar, 144 h
Experimental: b) Insecticidal activity against Thrips tabaci (Onion thrips): Sunflower leaf discs were placed on agar in 24-well microtiter plates and sprayed with aqueous test solutions prepared from 10'000 ppm DMSO stock solutions. After drying the leaf discs were infested with a thrips population of mixed ages. The samples were assessed for mortality 6 days after infestation.

[2] = test system: Spodoptera littoralis (Egyptian cotton leaf worm); experiment: Spodoptera littoralis cotton leaf disc spray test, L1 larvae; conditions: foliar, 72 h, application rate of 200 ppm, 3 days after infestation, L1 larvae, read-out: mortality
Procedure, shortened: (§1)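 Leaf discs on agar sprayed with aqueous dilutions of 10'000 ppm DMSO stocks, then infested after drying: Myzus persicae (sunflower, 200 ppm, mixed ages), mortality at 6 DAT; Thrips tabaci (sunflower, mixed ages), mortality at 6 days; Tetranychus urticae (bean, mixed ages), mobile-stage mortality at 8 days; Spodoptera littoralis (cotton), five L1 larvae per disc.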

[3] = test system: Myzus persicae (Green peach aphid); experiment: Myzus persicae sunflower leaf disc spray test; conditions: foliar, 144 h, application rate of 200 ppm, leaf disc spray, 6 DAT, read-out: mortality of Myzus persicae
From the text: (§2) The pesticidal/insecticidal properties of the compounds according to embodiments 1 or 2 can be illustrated via the following tests: Spodoptera littoralis (Egyptian cotton leaf worm) • Cotton leaf discs were placed onto agar in 24-well microtiter plates and sprayed with aqueous test solutions prepared from 10'000 ppm DMSO stock solutions. After drying the leaf discs were infested with five L1 larvae. […] Plutella xylostella (Diamond back moth): 24-well microtiter plates with artificial diet were treated with aqueous test solutions prepared from 10'000 ppm DMSO stock solutions by pipetting. After drying, the plates were infested with L2 larvae (10 to 15 per well). The samples were assessed for mortality and growth inhibition in comparison to untreated samples 5 days after infestation. […] Diabrotica balteata, (Corn root worm) • Maize sprouts placed onto an agar layer in 24-well microtiter plates were treated with aqueous test solutions prepared from 10'000 ppm DMSO stock solutions by spraying. After drying, the plates were infested with L2 larvae (6 to 10 per well). […] Thrips tabaci (Onion thrips): Sunflower leaf discs were placed on agar in 24-well microtiter plates and sprayed with aqueous test solutions prepared from 10'000 ppm DMSO stock solutions. After drying the leaf discs were infested with a thrips population of mixed ages. The samples were assessed for mortality 6 days after infestation. […] Tetranychus urticae (Two-spotted spider mite): Bean leaf discs on agar in 24-well microtiter plates were sprayed with aqueous test solutions prepared from 10'000 ppm DMSO stock solutions. After drying the leaf discs were infested with a mite population of mixed ages. The samples were assessed for mortality on mixed population (mobile stages) 8 days after infestation. […] Euschistus heros (Neotropical Brown Stink Bug): • Two weeks old soybean plants were sprayed in a turn table spray chamber with the diluted spray solutions. After drying 2 soybean seeds were added and plants were infested with 10 N2 nymphs of the neotropical brown stink bug Euschistus heros in plastic test boxes. The samples were assessed for mortality in comparison to untreated samples 5 days after infestation. • The following compounds gave at least 80% mortality of Euschistus heros at an application rate of 12.5 ppm: Compounds 3 , 4 , 8 , 39 , 43 , 44 , 46 , 75 , 76 , 77 , 78 , 79 , 80 , 81 , 82 , 88 , 90 , 93 and 95 . Myzus persicae (Green peach aphid): Sunflower leaf discs were placed on agar in a 24-well microtiter plate and sprayed with test solutions at an application rate of 200 ppm. After drying, the leaf discs were infested with an aphid population of mixed ages. After an incubation period of 6 DAT, samples were checked for mortality. The following compounds gave at least 50% mortality of Myzus persicae: Compounds 3 , 4 , 8 , 43 , 44 , 75 , 76 , 77 , 80 , 81 , 90 and 92 . Myzus persicae (Green peach aphid): • Test compounds were applied by pipette into 24 well plates and mixed with Sucrose solution. Application rate: 12.5ppm. The plates were closed with a stretched parafilm. A plastic stencil with 24 holes is placed onto the plate and infested pea seedlings were placed directly on the Parafilm. The infested plate is closed with a gel blotting paper and another plastic stencil and then turned upside down. […]

[4] = test system: Thrips tabaci (Onion thrips); experiment: Thrips tabaci sunflower leaf disc spray test; conditions: foliar, 144 h, application rate of 200 ppm, mortality 6 days after infestation, mixed ages
Procedure, shortened: as §1

[5] = test system: Tetranychus urticae (Two-spotted spider mite); experiment: Tetranychus urticae bean leaf disc spray test; conditions: foliar, 192 h, application rate of 200 ppm, mortality on mixed population (mobile stages) 8 days after infestation
Procedure, shortened: as §1

[6] = test system: Diabrotica balteata (Corn root worm); experiment: Biological comparison a): insecticidal activity against Diabrotica balteata, maize sprouts; conditions: 96 h, 4 days after infestation; for mortality at 0.195 ppm: Concentration 0.195 ppm; for mortality at 0.781 ppm: Concentration 0.781 ppm; for mortality at 3.12 ppm: Concentration 3.12 ppm; for mortality at 12.5 ppm: Concentration 12.5 ppm; for mortality at 50 ppm: Concentration 50 ppm
From the text: as §2

[7] = test system: Euschistus heros (Neotropical Brown Stink Bug); experiment: Euschistus heros soybean plant spray test, N2 nymphs; conditions: 120 h, application rate of 12.5 ppm, 5 days after infestation, N2 nymphs, read-out: mortality of Euschistus heros
From the text: as §2

[8] = test system: Plutella xylostella (Diamond back moth); experiment: Plutella xylostella artificial diet test, L2 larvae; conditions: 120 h, application rate of 200 ppm, mortality and growth inhibition 5 days after infestation
Procedure, shortened: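 Artificial diet in 24-well microtiter plates was treated by pipetting with aqueous test solutions made from 10'000 ppm DMSO stock solutions. Once dry, each well received 10 to 15 second-instar (L2) Plutella xylostella larvae. Mortality and growth inhibition were scored against untreated samples 5 days after infestation.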

[9] = test system: Diabrotica balteata, (Corn root worm); experiment: Diabrotica balteata maize sprout spray test, L2 larvae; conditions: 96 h, application rate of 200 ppm, 4 days after infestation, L2 larvae, read-out: mortality
Procedure, shortened: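 Test solutions in water, made from DMSO stock solutions at 10'000 ppm, were sprayed onto maize sprouts resting on an agar layer in 24-well microtiter plates. Once the treated sprouts had dried, each well was infested with 6 to 10 second-instar (L2) Diabrotica balteata corn rootworm larvae, and mortality was then scored as percent.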

[10] = test system: Myzus persicae (Green peach aphid); experiment: Myzus persicae sucrose solution / Parafilm feeding test; conditions: 120 h, Application rate: 12.5ppm, sucrose solution, 5 days after infestation, read-out: mortality of Myzus persicae
From the text: as §2

[11] = test system: Spodoptera littoralis (Egyptian cotton leaf worm); experiment: Biological comparison c): insecticidal activity against Spodoptera littoralis, larvicide L-3, feeding/contact, soybean plants; conditions: 120 h, 5 days after infestation, L3 larvae; for mortality at 0.05 ppm: Concentration 0.05 ppm; for mortality at 0.2 ppm: Concentration 0.2 ppm; for mortality at 0.8 ppm: Concentration 0.8 ppm; for mortality at 3 ppm: Concentration 3 ppm; for mortality at 12.5 ppm: Concentration 12.5 ppm
From the text: c) Insecticidal activity against Spodoptera littoralis (Egyptian cotton leaf worm): (larvicide L-3, feeding/contact) Soybean plants are sprayed with diluted test solutions in an application chamber. The plants (2 replicates) are infested with 10 L3 larvae 1 day after treatment. Samples are checked 5 days after infestation for mortality, feeding behavior, and growth regulation.

Compound	mortality at 200 ppm [2] [%]	mortality at 200 ppm [3] [%]	pest or weed control at 200 ppm [4] [%]	pest or weed control at 200 ppm [5] [%]	mortality at 0.195 ppm [6] [%]	mortality at 0.781 ppm [6] [%]	mortality at 3.12 ppm [6] [%]	mortality at 12.5 ppm [6] [%]	mortality at 50 ppm [6] [%]	mortality at 12.5 ppm [7] [%]	pest or weed control at 200 ppm [8] [%]	mortality at 200 ppm [9] [%]	mortality at 12.5 ppm [10] [%]	mortality at 0.05 ppm [11] [%]	mortality at 0.2 ppm [11] [%]	mortality at 0.8 ppm [11] [%]	mortality at 3 ppm [11] [%]	mortality at 12.5 ppm [11] [%]	further results
Cn1nc(C(F)(F)C(F)(F)F)c(C(F)(F)F)c1-n1cc(-c2ccc(Cl)c(C(=O)NC3(C#N)CC3)c2)cn1 [B, reference compound]																			mortality at 0.781 ppm [1]: 0%; mortality at 3.12 ppm [1]: 25%; mortality at 12.5 ppm [1]: 90%; mortality at 50 ppm [1]: 100%; mortality at 200 ppm [1]: 100%
Cn1nc(C(F)(F)C(F)(F)F)c(C(F)(F)F)c1-c1cc(-c2ccc(Cl)c(C(=O)NC3(C#N)CC3)c2)on1 [Compound 4, 2-chloro-N-(1-cyanocyclopropyl)-5-[3-[2-methyl-5-(1,1,2,2,2-pentafluoroethyl)-4-(trifluoromethyl)pyrazol-3-yl]isoxazol-5-yl]benzamide]	≥ 80	≥ 50	≥ 80	≥ 80	100	100	100	100	100	≥ 80	≥ 80	≥ 80	≥ 80						mortality at 0.781 ppm ([1]; Concentration 0.781 ppm, 6 days after infestation, read-out: Mortality (%)): 50%; mortality at 3.12 ppm ([1]; Concentration 3.12 ppm, 6 days after infestation, read-out: Mortality (%)): 65%; mortality at 12.5 ppm ([1]; Concentration 12.5 ppm, 6 days after infestation, read-out: Mortality (%)): 80%; mortality at 50 ppm ([1]; Concentration 50 ppm, 6 days after infestation, read-out: Mortality (%)): 100%; mortality at 200 ppm ([1]; Concentration 200 ppm, 6 days after infestation, read-out: Mortality (%)): 100%
Cn1nc(C(F)(F)C(F)(F)F)c(C(F)(F)F)c1-c1cc(-c2ccc(Cl)c(C(=O)NC3(C#N)CC3)c2)sn1 [Compound 44, 2-chloro-N-(1-cyanocyclopropyl)-5-[3-[2-methyl-5-(1,1,2,2,2-pentafluoroethyl)-4-(trifluoromethyl)pyrazol-3-yl]isothiazol-5-yl]benzamide]	≥ 80	≥ 50	≥ 80	≥ 80						≥ 80	≥ 80	≥ 80	≥ 80	0	0	50	95	100	
Cn1nc(C(F)(F)C(F)(F)F)c(C(F)(F)F)c1-n1cc(-c2ccc(Cl)c(C(=O)NC3(C#N)CC3)c2)nn1 [Compound A, reference compound]					0	0	100	100	100					0	0	0	60	100	
